Assay results: patent US20180141911A1, “Quinoline Derivatives for Diagnosis and Treatment of Alzheimer's Disease” (Northeastern University, priority 2015, published 2018)

Assays:
[1] = normal subjects, nonhuman primates; cited from earlier work
tau and Aβ aggregates = details: post-mortem AD brain tissues; cited from earlier work

Oc1cccc2ccc([18F])nc12 [[^18F]-CABS13, [^18F]-2-fluoro-8-hydroxyquinoline]
brain penetration [1]: poor brain penetration | conversion to a polar metabolite [1]: rapid, high conversion to a polar metabolite

Oc1cccc2cccnc12 [8-Hydroxyquinoline]
binding to tau and Aβ aggregates (tau and Aβ aggregates): bind to both tau and Aβ aggregates

Brc1cnc2c(OCc3ccccc3)cccc2c1
melting point: 120 °C

Oc1c(I)cc(Cl)c2cccnc12 [clioquinol]
binding to tau and Aβ aggregates (tau and Aβ aggregates): bind to both tau and Aβ aggregates
